Laboratory results taken from the supplement of paper PMC10307832.

What was measured:
Test in all cases: relative viability (nuclei count vs DMSO), 5 days (fraction); higher = more cells survive
NCI-H2228 = tested on: NCI-H2228
Outline: (§1)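 After 5 days of treatment, lung cancer cells in 1536-well plates were fixed and stained in a single step (final 0.05% Triton X-100, 1% formaldehyde, 1 ug/ml Hoechst) and their nuclei counted on 4× images. Treatment had been applied by pin tool the day after seeding as one drug alone or as a fixed anchor-drug dose with five library-drug doses (not always all listed) in √10 steps. Relative viability is the nuclei count of treated wells divided by that of vehicle wells, and values are medians of duplicate plates.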

NCI-H1755 = tested on: NCI-H1755
Outline: as §1

RERF-LC-KJ = tested on: RERF-LC-KJ
Outline: as §1

NCI-H1395 = tested on: NCI-H1395
Outline: as §1

NCI-H3122 = tested on: NCI-H3122
Outline: as §1

LOU-NH91 = tested on: LOU-NH91
Outline: as §1

NCI-H1793 = tested on: NCI-H1793
Outline: as §1

LU99A = tested on: LU99A
Outline: as §1

HCC-78 = tested on: HCC-78
Outline: as §1

ChaGo-K-1 = tested on: ChaGo-K-1
Outline: as §1

NCI-H1651 = tested on: NCI-H1651
Outline: as §1

ABC-1 = tested on: ABC-1
Outline: as §1

NCI-H460 = tested on: NCI-H460
Outline: as §1

NCI-H2170 = tested on: NCI-H2170
Outline: as §1

PC-3 [JPC-3] = tested on: PC-3 [JPC-3]
Outline: as §1

UMC-11 = tested on: UMC-11
Outline: as §1

NCI-H2405 = tested on: NCI-H2405
Outline: as §1

NCI-H2087 = tested on: NCI-H2087
Outline: as §1

HCC-366 = tested on: HCC-366
Outline: as §1

CAL-12T = tested on: CAL-12T
Outline: as §1

LC-2-ad = tested on: LC-2-ad
Outline: as §1

NCI-H1944 = tested on: NCI-H1944
Outline: as §1

`CCN(CC)CCCCNc1ncc2cc(-c3cc(OC)cc(OC)c3)c(NC(=O)NC(C)(C)C)nc2n1` + COc1cccc2cc(-c3nc([C@H]4CC[C@H](C(=O)O)CC4)n4ncnc(N)c34)[nH]c12 [OSI-027] (partner 0.5 µM) showed a relative viability (NCI-H2228; first compound 0.01 µM) of 0.599, a relative viability (NCI-H2228; first compound 0.03162 µM) of 0.505 and a relative viability (NCI-H2228; first compound 0.1 µM) of 0.582. It also gave a relative viability (NCI-H2228; first compound 0.3162 µM) of 0.63, a relative viability (NCI-H2228; first compound 1 µM) of 0.363 and a relative viability (NCI-H1755; first compound 0.01 µM) of 0.625. The relative viability (NCI-H1755; first compound 0.03162 µM) was 0.77, the relative viability (NCI-H1755; first compound 0.1 µM) was 0.811 and the relative viability (NCI-H1755; first compound 0.3162 µM) was 0.799. For the same compound, the relative viability (NCI-H1755; first compound 1 µM) was 0.707, the relative viability (RERF-LC-KJ; first compound 0.01 µM) was 0.549 and the relative viability (RERF-LC-KJ; first compound 0.03162 µM) was 0.678. For the same compound, the relative viability (RERF-LC-KJ; first compound 0.1 µM) was 0.536, the relative viability (RERF-LC-KJ; first compound 0.3162 µM) was 0.675 and the relative viability (RERF-LC-KJ; first compound 1 µM) was 0.515. For the same compound, the relative viability (NCI-H1395; first compound 0.01 µM) was 0.578, the relative viability (NCI-H1395; first compound 0.03162 µM) was 0.697 and the relative viability (NCI-H1395; first compound 0.1 µM) was 0.745. It also gave a relative viability (NCI-H1395; first compound 0.3162 µM) of 0.554, a relative viability (NCI-H1395; first compound 1 µM) of 0.458 and a relative viability (NCI-H3122; first compound 0.01 µM) of 1.06. For the same compound, the relative viability (NCI-H3122; first compound 0.03162 µM) was 1.02, the relative viability (NCI-H3122; first compound 0.1 µM) was 1.15 and the relative viability (NCI-H3122; first compound 0.3162 µM) was 1.3. The relative viability (NCI-H3122; first compound 1 µM) was 0.922, the relative viability (LOU-NH91; first compound 0.01 µM) was 0.672 and the relative viability (LOU-NH91; first compound 0.03162 µM) was 0.741. It also gave a relative viability (LOU-NH91; first compound 0.1 µM) of 0.776, a relative viability (LOU-NH91; first compound 0.3162 µM) of 0.776 and a relative viability (LOU-NH91; first compound 1 µM) of 0.696. For the same compound, the relative viability (NCI-H1793; first compound 0.01 µM) was 0.238, the relative viability (NCI-H1793; first compound 0.03162 µM) was 0.253 and the relative viability (NCI-H1793; first compound 0.1 µM) was 0.318. The relative viability (NCI-H1793; first compound 0.3162 µM) was 0.307, the relative viability (NCI-H1793; first compound 1 µM) was 0.206 and the relative viability (LU99A; first compound 0.01 µM) was 0.292. For the same compound, the relative viability (LU99A; first compound 0.03162 µM) was 0.259, the relative viability (LU99A; first compound 0.1 µM) was 0.309 and the relative viability (LU99A; first compound 0.3162 µM) was 0.291. For the same compound, the relative viability (LU99A; first compound 1 µM) was 0.302, the relative viability (HCC-78; first compound 0.01 µM) was 0.36 and the relative viability (HCC-78; first compound 0.03162 µM) was 0.381. For the same compound, the relative viability (HCC-78; first compound 0.1 µM) was 0.468, the relative viability (HCC-78; first compound 0.3162 µM) was 0.349 and the relative viability (HCC-78; first compound 1 µM) was 0.357. For the same compound, the relative viability (ChaGo-K-1; first compound 0.01 µM) was 0.618, the relative viability (ChaGo-K-1; first compound 0.03162 µM) was 0.671 and the relative viability (ChaGo-K-1; first compound 0.1 µM) was 0.619. It also gave a relative viability (ChaGo-K-1; first compound 0.3162 µM) of 0.559, a relative viability (ChaGo-K-1; first compound 1 µM) of 0.513 and a relative viability (NCI-H1651; first compound 0.01 µM) of 0.7. It also gave a relative viability (NCI-H1651; first compound 0.03162 µM) of 0.737, a relative viability (NCI-H1651; first compound 0.1 µM) of 0.782 and a relative viability (NCI-H1651; first compound 0.3162 µM) of 0.79. The relative viability (NCI-H1651; first compound 1 µM) was 0.695, the relative viability (ABC-1; first compound 0.01 µM) was 0.433 and the relative viability (ABC-1; first compound 0.03162 µM) was 0.389. It also gave a relative viability (ABC-1; first compound 0.1 µM) of 0.55, a relative viability (ABC-1; first compound 0.3162 µM) of 0.499 and a relative viability (ABC-1; first compound 1 µM) of 0.402. The relative viability (NCI-H460; first compound 0.01 µM) was 0.879, the relative viability (NCI-H460; first compound 0.03162 µM) was 0.677 and the relative viability (NCI-H460; first compound 0.1 µM) was 0.859. For the same compound, the relative viability (NCI-H460; first compound 0.3162 µM) was 0.815, the relative viability (NCI-H460; first compound 1 µM) was 0.291 and the relative viability (NCI-H2170; first compound 0.01 µM) was 0.768. The relative viability (NCI-H2170; first compound 0.03162 µM) was 0.67, the relative viability (NCI-H2170; first compound 0.1 µM) was 0.71 and the relative viability (NCI-H2170; first compound 0.3162 µM) was 0.79. For the same compound, the relative viability (NCI-H2170; first compound 1 µM) was 0.75, the relative viability (PC-3 [JPC-3]; first compound 0.01 µM) was 0.753 and the relative viability (PC-3 [JPC-3]; first compound 0.03162 µM) was 0.796. The relative viability (PC-3 [JPC-3]; first compound 0.1 µM) was 0.782, the relative viability (PC-3 [JPC-3]; first compound 0.3162 µM) was 1.02 and the relative viability (PC-3 [JPC-3]; first compound 1 µM) was 0.585. It also gave a relative viability (UMC-11; first compound 0.01 µM) of 0.508, a relative viability (UMC-11; first compound 0.03162 µM) of 0.473 and a relative viability (UMC-11; first compound 0.1 µM) of 0.481. It also gave a relative viability (UMC-11; first compound 0.3162 µM) of 0.485, a relative viability (UMC-11; first compound 1 µM) of 0.443 and a relative viability (NCI-H2405; first compound 0.01 µM) of 0.647. It also gave a relative viability (NCI-H2405; first compound 0.03162 µM) of 0.659, a relative viability (NCI-H2405; first compound 0.1 µM) of 0.585 and a relative viability (NCI-H2405; first compound 0.3162 µM) of 0.602. The relative viability (NCI-H2405; first compound 1 µM) was 0.691, the relative viability (NCI-H2087; first compound 0.01 µM) was 0.618 and the relative viability (NCI-H2087; first compound 0.03162 µM) was 0.5. The relative viability (NCI-H2087; first compound 0.1 µM) was 0.733, the relative viability (NCI-H2087; first compound 0.3162 µM) was 0.636 and the relative viability (NCI-H2087; first compound 1 µM) was 0.6. For the same compound, the relative viability (HCC-366; first compound 0.01 µM) was 1.02, the relative viability (HCC-366; first compound 0.03162 µM) was 1.01 and the relative viability (HCC-366; first compound 0.1 µM) was 1.2. The relative viability (HCC-366; first compound 0.3162 µM) was 1.06, the relative viability (HCC-366; first compound 1 µM) was 1.24 and the relative viability (CAL-12T; first compound 0.01 µM) was 0.623. The relative viability (CAL-12T; first compound 0.03162 µM) was 0.736, the relative viability (CAL-12T; first compound 0.1 µM) was 0.789 and the relative viability (CAL-12T; first compound 0.3162 µM) was 0.836. The relative viability (CAL-12T; first compound 1 µM) was 0.576, the relative viability (LC-2-ad; first compound 0.01 µM) was 0.776 and the relative viability (LC-2-ad; first compound 0.03162 µM) was 1.05. The relative viability (LC-2-ad; first compound 0.1 µM) was 0.909, the relative viability (LC-2-ad; first compound 0.3162 µM) was 0.854 and the relative viability (LC-2-ad; first compound 1 µM) was 0.75. The relative viability (NCI-H1944; first compound 0.01 µM) was 0.417, the relative viability (NCI-H1944; first compound 0.03162 µM) was 0.449 and the relative viability (NCI-H1944; first compound 0.1 µM) was 0.437. For the same compound, the relative viability (NCI-H1944; first compound 0.3162 µM) was 0.406 and the relative viability (NCI-H1944; first compound 1 µM) was 0.351.
